The source made the active and inactive calls. The calls are words filed in the database; no cut-off is given here.

In one data set the test system is HCT-116. Kind of data set: Antiproliferative activity against human HCT-116 cells assessed as cell growth inhibition incubated for 72 hrs by MTT assay. The data set is classed as functional.
Data set [1] deals with A549. The data set can be described thus: Induction of apoptosis in human A549 cells assessed as live cells at 10 uM incubated for 48 hrs by Annexin V-FITC/PI staining based flow cytometry analysis (reference value: 96.4%). The data set is classed as functional. (A flow cytometer gives signals particle by particle.)
For another data set, the system named is PC-3. Kind of data set: Antiproliferative activity against human PC-3 cells assessed as cell growth inhibition incubated for 72 hrs by MTT assay. The data set is classed as functional. For orientation: Tetrazolium dyes change colour on reduction, which living cells bring about.
The subject of data set [2] is A549. The data set can be described thus: Antiproliferative activity against human A549 cells assessed as cell growth inhibition incubated for 72 hrs by MTT assay. Type of data set: functional.
Data set [3] relates to A549. Kind of data set: Induction of apoptosis in human A549 cells assessed as late apoptotic cells at 10 uM incubated for 48 hrs by Annexin V-FITC/PI staining based flow cytometry analysis (reference value: 2.15%). Type of data set: functional.
For data set [4], the system named is A549. The data set can be described thus: Induction of apoptosis in human A549 cells assessed as dead cells at 10 uM incubated for 48 hrs by Annexin V-FITC/PI staining based flow cytometry analysis (reference value: 0.739%). The data set is classed as functional.
The test system of data set [5] is A549. The data set can be described thus: Induction of apoptosis in human A549 cells assessed as total apoptotic cells at 10 uM incubated for 48 hrs by Annexin V-FITC/PI staining based flow cytometry analysis (reference value: 2.86%). Type of data set: functional.
In data set [6] the test system is A549. The data set can be described thus: Induction of apoptosis in human A549 cells assessed as early apoptotic cells at 10 uM incubated for 48 hrs by Annexin V-FITC/PI staining based flow cytometry analysis (reference value: 0.708%). The data set is classed as functional.
Data set [7] concerns A549. The data set can be described thus: Induction of apoptosis in human A549 cells assessed as upregulation of BAX translocation at 20 uM incubated for 24 hrs by Western blot analysis. Type of data set: functional, cell-based. In general terms: In western blotting, separated proteins are transferred to a membrane and probed.
The conditions of data set [8]: human, 1 h, 100 µM.
The conditions of data set [9]: human, microsomes, 1 h, 100 µM.
For data set [10] the following is noted: mouse, 1 h, 100 µM.
A short description of data set [11]: in vitro. Conditions: human, microsomes.
For data set [12] the following is noted: mouse, microsomes, 1 h, 100 µM.
Data set [13] in a line: in vitro. To be noted: mouse, microsomes.
Data set [14] is described as follows: Stability in rat plasma assessed as compound remaining measured after 60 mins. Type of data set: ADME, cell-free. To be noted: read-out: Stability.
A short description of data set [15]: Stability in rat plasma assessed as compound remaining measured immediately. To be noted: read-out: Stability. Type of data set: ADME, cell-free.
A short description of data set [16]: Stability in rat plasma assessed as compound remaining measured after 30 mins. Type of data set: ADME, cell-free. To be noted: read-out: Stability.
The nature of data set [17]: Stability in rat plasma assessed as half life. Type of data set: ADME, cell-free.
A short description of data set [18]: Stability in rat plasma assessed as compound remaining measured after 120 mins. The data set is classed as ADME, cell-free. Conditions: read-out: Stability.
Data set [19] can be described thus: Stability in rat plasma assessed as compound remaining measured after 10 mins. Type of data set: ADME, cell-free. Conditions: read-out: Stability.

What is called GI50 is the concentration at which growth is held to half of that of the control. For `N[C@@H]1CCCN(C(=O)c2ccc(N3N=C(c4ccccc4)/C(=N/Nc4ccccc4)C3=O)cc2)C1`, the GI50 in the data set with HCT-116 was 2.96 µM; in the data set on PC-3 it was 5.39 µM; with A549 [2] it was 8.38 µM. Besides, the Activity worked out at 6.22% in the data set on A549 [1]; 3.21% in the data set on A549 [3]; 0.814% in the data set with A549 [4]; 11.8% in the data set on A549 [5]; 8.59% in the data set with A549 [6].

Consider `CC1=NN(c2ccc(C(=O)N3CCC(N(C)C)CC3)cc2)C(=O)/C1=N\Nc1ccccc1`, for which the figures for the concentration for 50% growth inhibition (GI50) with HCT-116, in the data set with PC-3 and in the data set with A549 [2] were 3.42 µM, 4.94 µM and 8.99 µM, respectively. The Activity with A549 [1] was 82.4%; in the data set on A549 [3] it was 1.57%; in the data set with A549 [4] it was 4.37%; with A549 [5], 13.3%; in the data set on A549 [6], 11.7%.

As for `CN(C)C1CCN(C(=O)c2ccc(N3N=C(c4ccccc4)/C(=N/Nc4ccc(O)cc4)C3=O)cc2)CC1`, the result with A549 [7] was Active. The results for the GI50 in the data set on HCT-116, in the data set with PC-3 and in the data set with A549 [2] were 2.67 µM, 3.04 µM and 2.19 µM, respectively. In addition, the Activity in the data set on A549 [1] was determined as 21.5%; in the data set with A549 [3], 16.2%; in the data set with A549 [4] it was 2.33%; in the data set with A549 [5] it was 76.2%; in the data set with A549 [6], 60%.

With `CN(C)C1CCN(C(=O)c2ccc(N3N=C(c4ccccc4)/C(=N/Nc4cc(C(F)(F)F)cc(C(F)(F)F)c4)C3=O)cc2)CC1`, the GI50 in the data set with HCT-116 was found to be 1.76 µM; with PC-3, 1.15 µM; with A549 [2], 4.54 µM. For the same compound, the Activity in the data set on A549 [1] is recorded as 54.3%; in the data set with A549 [3] it was 10.1%; in the data set on A549 [4], 0.996%; with A549 [5], 44.8%; with A549 [6] it was 34.7%.

With `C[C@]12CC[C@H]3[C@@H](CCC4=CC(=O)CC[C@@]43C)[C@@H]1CC[C@@H]2O` [TESTOSTERONE], the values for the CLH in data set [8] and in [10] were 95.5 mL/min/kg and 1.4374 mL/min/kg, respectively. The compound also displayed a CLint in [9] of 106 µL/min/mg.

`COc1cc(N/N=C2\C(=O)N(c3ccc(C(=O)N4CCC(N(C)C)CC4)cc3)N=C2c2ccccc2)ccc1F`: the result with A549 [7] was Active. The GI50 with HCT-116 is 3.37 µM; in the data set with PC-3 it was 3.94 µM; in the data set with A549 [2], 2.79 µM. Moreover, the Activity with A549 [1] is 35.4%; in the data set with A549 [3], 22.2%; in the data set with A549 [4], 2.85%; in the data set with A549 [5], 61.8%; in the data set on A549 [6] it was 39.6%.

The half-life is how long it takes for the measured level to halve. Consider `O=C(O)Cc1ccccc1Nc1c(Cl)cccc1Cl` [DICLOFENAC], for which the figures for the half-life at 1 h, 100 µM in “in vitro [11]” and in the data set “in vitro [13]” were 6.8 min and 46.7 min, respectively. Besides, the CLint in data set [12] came out at 29.7 µL/min/mg; in [9], 203 µL/min/mg. For the same compound, the CLH in data set [8] (Liver) came out at 183 mL/min/kg; in data set [10] (Liver), 0.1176 mL/min/kg.

Take `O=C(c1ccc(N2N=C(c3ccccc3)/C(=N/Nc3ccccc3)C2=O)cc1)N1CCC2(CC1)CNC2`: the GI50 in the data set with HCT-116 stood at 4.12 µM; with PC-3 it was 5.6 µM; in the data set with A549 [2], 4.69 µM.

In the case of `CN(C)C1CCN(C(=O)c2ccc(N3N=C(c4ccccc4)/C(=N/Nc4cccnc4)C3=O)cc2)CC1`, the 50% growth inhibitory concentration (GI50) in the data set with HCT-116 worked out at 3.88 µM; with PC-3, 5.17 µM; in the data set on A549 [2], 4.22 µM.

Consider `CC(C)(C)OC(=O)N1CCC2(CC1)CN(C(=O)c1ccc(N3N=C(c4ccccc4)/C(=N\Nc4ccccc4)C3=O)cc1)C2`, for which the values for the GI50 in the data set with HCT-116, in the data set on PC-3 and with A549 [2] were 17.7 µM, 19.9 µM and 25.5 µM, respectively.

Consider `CN(C)C1CCN(C(=O)c2ccc(N3N=C(c4ccccc4)/C(=N/Nc4ccc(OCc5ccccc5)cc4)C3=O)cc2)CC1`, for which the GI50 with HCT-116 is > 20 µM; with PC-3 it was > 20 µM; in the data set with A549 [2], 5.03 µM.

For the compound `CN(C)C1CCN(C(=O)c2ccc(N3N=C(c4ccccc4)C(=C4CCN(C(=O)c5cscn5)CC4)C3=O)cc2)CC1`, the GI50 was 11.7 µM in the data set with HCT-116, 16.8 µM with PC-3 and 16.6 µM in the data set on A549 [2].

For `CN(C)C1CCN(C(=O)c2ccc(N3N=C(c4ccccc4)/C(=C/Nc4ccccc4)C3=O)cc2)CC1`, the GI50 is 14.8 µM with HCT-116, > 20 µM with PC-3 and > 20 µM with A549 [2].

With `CN(C)C1CCN(C(=O)c2ccc(N3N=C(C4CC4)/C(=N/Nc4ccccc4)C3=O)cc2)CC1`, the GI50 in the data set with HCT-116 was found to be 4.38 µM; in the data set on PC-3 it was 7.14 µM; with A549 [2], 2.15 µM.

With `CCOC(=O)[C@H](CCc1ccccc1)N[C@@H](C)C(=O)N1CCC[C@H]1C(=O)O.O=C(O)/C=C\C(=O)O` [ENALAPRIL MALEATE], the remaining at 1 h in data set [14] is 2.7%. In data set [15], the remaining at 0 min was 100%. In addition, in data set [16], the remaining at 0.5 h was determined as 19.2%. In [17], the half-life amounted to 10 min. The remaining at 2 h in data set [18] was 0%. The remaining at 10 min in data set [19] was found to be 58.9%.

Regarding `CN1CCC(NC(=O)c2ccc(N3N=C(c4ccccc4)/C(=N/Nc4ccccc4)C3=O)cc2)CC1`, the GI50 worked out at 4.13 µM in the data set with HCT-116, 6.45 µM in the data set with PC-3 and 4.44 µM with A549 [2].

Take `CN(C)C1CCN(C(=O)c2ccc(N3N=C(c4ccccc4)CC3=O)cc2)CC1`: the GI50 in the data set with HCT-116, in the data set on PC-3 and in the data set with A549 [2] was > 50 µM throughout.

On to `O=C(NCc1ccncc1)c1ccc(N2N=C(c3ccccc3)/C(=N/Nc3ccccc3)C2=O)cc1`, for which the GI50 with HCT-116 worked out at 17.5 µM; in the data set with PC-3, 12.6 µM; in the data set on A549 [2] it was 11.5 µM.

In the case of `O=C(c1ccccc1)N1CCC(C2=NN(c3nc(-c4ccccc4)cs3)C(=O)/C2=N\Nc2nccs2)CC1`, the GI50 in the data set with HCT-116 is > 50 µM; with PC-3, > 50 µM; in the data set on A549 [2], 28.7 µM.

With `CN(C)C1CCN(C(=O)c2ccc(N3N=C(c4ccccc4)C(=C4CCN(C(=O)c5cc6cc(Cl)ccc6[nH]5)CC4)C3=O)cc2)CC1`, the figures for the GI50 with HCT-116, in the data set on PC-3 and with A549 [2] were > 50 µM, > 50 µM and 43.6 µM, respectively.

Source of the values: ChEMBL document CHEMBL5325413, “Optimization of BAX trigger site activator BTSA1 with improved antitumor potency and in vitro ADMET properties” (Eur J Med Chem, 2023).
